The record followed here is article PMC7397142, “Discovery of Novel Tankyrase Inhibitors through Molecular Docking-Based Virtual Screening and Molecular Dynamics Simulation Studies” (Molecules, 2020).

As usually defined, the IC50 is the concentration needed to halve the response being measured. A higher IC50 goes with weaker potency.

Assay [1] deals with T1, tankyrase 2 (TNKS2) (Homo sapiens, UniProt Q9H2K2).
T1 construct: catalytic fragment (human, recombinant, residues 849–1166)
In words: immunochemical dot-blot assay of PAR accumulation, […] NAD+; 4PL fit gave […]. Format: biochemical.

Assay [2] has as its target T1, tankyrase 2 (TNKS2). Described as above. The assay is classed as biochemical. This is another data set of the same source.

The structures appear in SMILES notation. Read-outs that look alike come from different tables or passages of the source.

T1 sequence (Q9H2K2 849-1166): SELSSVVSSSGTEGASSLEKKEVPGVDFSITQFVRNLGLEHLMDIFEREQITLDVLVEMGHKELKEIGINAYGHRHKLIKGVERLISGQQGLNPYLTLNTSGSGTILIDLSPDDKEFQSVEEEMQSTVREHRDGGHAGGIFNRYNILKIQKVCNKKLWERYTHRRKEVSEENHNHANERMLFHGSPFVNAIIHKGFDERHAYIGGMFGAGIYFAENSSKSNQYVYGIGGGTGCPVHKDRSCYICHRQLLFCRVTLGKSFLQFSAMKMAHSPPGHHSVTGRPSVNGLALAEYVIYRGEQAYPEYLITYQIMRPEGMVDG

Consider `O=C(NCCNC(=O)c1cnccn1)c1ccc(-c2cc3ccccc3oc2=O)cc1` [A1], for which, at tankyrase 2 (TNKS2) [1], the IC50 was under 0.01 µM.

The compound `COc1ccc2oc(=O)c(-c3ccc(OCC(=O)NCc4cccnc4)cc3)cc2c1` [A3] registered an IC50 against tankyrase 2 (TNKS2) [2] of under 10 µM.
